Experimental data from publication PMC9024521, “4-Heteroaryl Substituted Amino-3,5-Dicyanopyridines as New Adenosine Receptor Ligands: Novel Insights on Structure-Activity Relationships and Perspectives” (Pharmaceuticals, 2022).

Legend:
hA2AAR [1] = target: T1, hA2AAR (Homo sapiens, UniProt P29274); assay: Competition binding, [3H]ZM241385, hA2A CHO cell membranes; conditions: displacement of [3H]ZM241385, hA2A CHO cells; mean ± SEM of four assays
T1 construct: host or cells: CHO cells
Method: (§1) CHO cells transfected with hA1, hA2A, hA2B and hA3 ARs (Perkin Elmer, Boston, MA, USA) were grown adherently and maintained in Dulbecco’s modified Eagle’s medium with nutrient mixture F12, containing 10% fetal calf serum, penicillin (100 U/mL), streptomycin (100 μg/mL), L-glutamine (2 mM) and geneticine (G418; 0.2 mg/mL), at 37 °C, in 5% CO2/95% air, until their use in cAMP assays. For membrane preparation, the culture medium was removed, and the cells were washed with phosphate-buffered saline and scraped off T75 flasks in ice-cold hypotonic buffer (5 mM Tris HCl, 1 mM EDTA, pH 7.4). The cell suspension was homogenized with a Polytron, centrifuged for 30 min at 40,000× g, at 4 °C, and the resulting membrane pellet was used for competition binding experiments.
All synthesized compounds were tested for their affinity to hA1, hA2A and hA3 ARs. Competition experiments to hA1AR were carried out by incubating 1 nM [^3H]-8-cyclopentyl-1,3-dipropylxanthine ([^3H]-DPCPX) with membrane suspension (50 μg of protein/100 μL) and different concentrations of the examined compounds at 25 °C for 90 min in 50 mM Tris HCl, pH 7.4. Non-specific binding was defined as binding in the presence of 1 μM DPCPX and was always <10% of the total binding. Inhibition experiments to hA2A ARs were performed by incubating the radioligand [^3H]-4-(-2-[7-amino-2-{2-furyl}{1,2,4}triazolo{2,3-a} {1,3,5}triazin-5-yl-amino]ethyl)phenol ([^3H]-ZM241385) (1 nM) with the membrane suspension (50 μg of protein/100 μL) and different concentrations of the examined compounds for 60 min, at 4 °C, in 50 mM Tris HCl (pH 7.4), 10 mM MgCl2. Non-specific binding was determined in the presence of ZM241385 (1 μM) and was about 20% of the total binding. Competition binding experiments to A3ARs were carried out by incubating the membrane suspension (50 μg of protein/100 μL) with 0.5 nM [^125I]-N6-(4-aminobenzyl)-N-methylcarboxamidoadenosine ([^125I]-ABMECA) in the presence of different concentrations of the examined compounds for an incubation time of 120 min, at 4 °C, in 50 mM Tris HCl (pH 7.4), 10 mM MgCl2, 1 mM EDTA. Non-specific binding was defined as binding in the presence of 1 μM ABMECA and was always <10% of the total binding. Bound and free radioactivity were separated by filtering the assay mixture through Whatman GF/B glass-fiber filters, using a Brandel cell harvester (Brandel Instruments, Unterföhring, Germany). The filter bound radioactivity was counted by Packard Tri Carb 2810 TR scintillation counter (Perkin Elmer).
The protein concentration was determined according to a Bio-Rad method, with bovine albumin as a standard reference. Inhibitory binding constant (Ki) values were calculated from those of IC50 according to the Cheng–Prusoff equation, Ki = IC50/(1 + [C*]/KD*), where [C*] is the concentration of the radioligand, and KD* its dissociation constant. Ki and IC50 values were calculated by non-linear regression analysis, using the equation for a sigmoid concentration-response curve (Graph-PAD Prism, San Diego, CA, USA).

hA2B AR = target: T2, hA2B AR (Homo sapiens, UniProt P29275); assay: cAMP assay in CHO cells expressing hA2B AR (stimulation of cAMP production); type: cell-based; conditions: for Emax at 1 µM: CHO, 1 µM compound, in comparison with NECA (1 µM = 100%), read-out: Efficacy hA2B (cAMP assay) (converted); for EC50: hA2B CHO cells, mean ± SEM of four assays
T2 construct: host or cells: CHO cells
T2 sequence (P29275 1-332): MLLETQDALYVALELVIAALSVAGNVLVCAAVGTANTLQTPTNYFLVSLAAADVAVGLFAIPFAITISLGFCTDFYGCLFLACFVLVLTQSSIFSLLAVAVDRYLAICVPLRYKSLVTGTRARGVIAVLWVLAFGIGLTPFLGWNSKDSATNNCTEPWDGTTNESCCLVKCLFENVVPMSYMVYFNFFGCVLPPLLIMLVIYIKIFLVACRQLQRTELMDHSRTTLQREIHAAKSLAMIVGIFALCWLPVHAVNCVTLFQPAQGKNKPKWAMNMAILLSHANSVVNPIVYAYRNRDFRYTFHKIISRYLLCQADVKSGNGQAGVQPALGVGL
Method: (§2) The amino-3,5-dicyanopyridines 1–21 were tested for their affinity at hA1, hA2A and hA3 ARs, stably transfected in Chinese Hamster Ovary (CHO) cells. Moreover, they were also studied as hA2B agonists by evaluating their stimulatory effect on cAMP production in CHO cells, stably expressing the hA2B AR. […] Due to their interesting pan profile, both compounds 1 and 5 were evaluated as AR agonists also at the hA2A and hA3 subtypes.
as §1
(§3) CHO cells transfected with hAR subtypes were washed with phosphate-buffered saline, detached with tripsine and centrifuged for 10 min at 200× g. Cells were seeded in a 96-well white half-area microplate (Perkin Elmer, Boston, USA) in a stimulation buffer composed of Hank Balanced Salt Solution, 5 mM HEPES, 0.5 mM Ro 20–1724, 0.1% BSA. The cAMP levels were then quantified by using the AlphaScreen cAMP Detection Kit (Perkin Elmer, Boston, MA, USA), following the manufacturer’s instructions. At the end of the experiments, the plates were read with a Perkin Elmer EnSight Multimode Plate Reader.

hA2AAR [2] = target: T1, hA2AAR; assay: cAMP assay in hA2A CHO cells; type: cell-based; conditions: for EC50: cAMP assay, hA2A CHO cells; for hA2AAR Efficacy: normalized: CGS21680 full agonist = 100%
Method: as §2, §1, §3

[3] = Solubility in testing medium; type: physicochemical; conditions: PBS + Tween 80 (2% w/w), pH 7.4, aqueous with cosolvent or surfactant or cyclodextrin

T1 sequence (P29274 whole entry): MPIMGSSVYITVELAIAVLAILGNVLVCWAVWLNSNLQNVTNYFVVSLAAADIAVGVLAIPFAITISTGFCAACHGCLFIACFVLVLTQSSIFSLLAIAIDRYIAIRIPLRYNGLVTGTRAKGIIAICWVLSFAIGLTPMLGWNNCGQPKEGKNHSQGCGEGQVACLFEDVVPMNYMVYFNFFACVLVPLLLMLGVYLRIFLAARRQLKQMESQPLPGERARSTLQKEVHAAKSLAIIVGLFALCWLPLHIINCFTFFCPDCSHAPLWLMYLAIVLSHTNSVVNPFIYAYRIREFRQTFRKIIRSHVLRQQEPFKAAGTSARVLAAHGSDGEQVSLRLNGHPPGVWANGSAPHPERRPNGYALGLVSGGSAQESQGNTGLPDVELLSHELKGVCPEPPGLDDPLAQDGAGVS

With `N#Cc1c(N)nc(SCc2ncc[nH]2)c(C#N)c1-c1cccs1` [Compound 5, 2-Amino-6-[(1H-imidazol-2-ylmethyl)sulfanyl]-4-(thiophen-2-yl)pyridine-3,5-dicarbonitrile] as the molecule, how does the Ki (hA2AAR [1]) read?
Its Ki is 24 ± 2 nM.

What about the Emax at 1 µM (hA2B AR) of the same molecule?
Its Emax at 1 µM is 73%.

What about the EC50 (hA2B AR) of the same molecule?
Its EC50 is 1.12 ± 0.11 nM.

And the EC50 (hA2AAR [2])?
Its EC50 is 11.3 ± 1 nM.

And the “hA2AAR Efficacy” value (hA2AAR [2])?
The value was 40 ± 3%.

And the solubility [3]?
The solubility was 27.3 ± 2.52 µg/mL.

And the melting point?
The melting point was 246 to 248 °C.

With `N#Cc1c(N)nc(SCc2ncc[nH]2)c(C#N)c1-c1ccco1` [Compound 1, 2-Amino-4-(furan-2-yl)-6-[(1H-imidazol-2-ylmethyl)sulfanyl]pyridine-3,5-dicarbonitrile] as the molecule, how does the Ki (hA2AAR [1]) read?
The Ki was 21 ± 2 nM.

What about the Emax at 1 µM (hA2B AR) of the same molecule?
Its Emax at 1 µM is 52%.

And the EC50 (hA2B AR)?
Its EC50 is 1.4 ± 0.2 nM.

What about the EC50 (hA2AAR [2]) of the same molecule?
The EC50 was 15.1 ± 1.3 nM.

What about the “hA2AAR Efficacy” value (hA2AAR [2]) of the same molecule?
The value was 39 ± 3%.

What about the solubility [3] of the same molecule?
Its solubility is 40.6 ± 0.16 µg/mL.
